Assay results: ChEMBL document CHEMBL3046339, “Insecticidal activity of Maytenus species (Celastraceae) nortriterpene quinone methides against codling moth, Cydia pomonella (L.) (Lepidoptera: tortricidae)” (2000)
≈ marks a conversion by molar mass, not a printed value.

Tests used:
Format in all cases: functional
[1] = tested on: Cydia pomonella; experiment: Antifeedant activity against Cydia pomonella (codling moth) at 6 mg/kg diet topically measured after 10 days of continuous exposure (reference value: 6.7 +/- 6.7%)
[2] = tested on: Cydia pomonella; experiment: Insecticidal activity against Cydia pomonella (codling moth) at 20 mg/kg assessed as growth regulation measured as number of head capsules of larvae after 10 days of continuous exposure Rvb = (1.5 +/- 0.2%)
[3] = tested on: Cydia pomonella; experiment: Insecticidal activity against Cydia pomonella (codling moth) at 4 mg/kg assessed as growth regulation measured as number of head capsules of larvae after 10 days of continuous exposure Rvb = (1.5 +/- 0.2%)
[4] = tested on: Cydia pomonella; experiment: Antifeedant activity against Cydia pomonella (codling moth) at 2 mg/kg diet topically measured after 5 days of continuous exposure (reference value: 6.7 +/- 6.7%)
[5] = tested on: Cydia pomonella; experiment: Insecticidal activity against Cydia pomonella (codling moth) at 12 mg/kg assessed as growth regulation measured as number of head capsules of larvae after 5 days of continuous exposure (reference value: 0.2 +/- 0.2%)
[6] = tested on: Cydia pomonella; experiment: Insecticidal activity against Cydia pomonella (codling moth) at 1 mg/kg assessed as growth regulation measured as number of head capsules of larvae after 10 days of continuous exposure Rvb = (1.5 +/- 0.2%)
[7] = tested on: Cydia pomonella; experiment: Insecticidal activity against Cydia pomonella (codling moth) assessed as mortality at 8 mg/kg diet topically measured after 5 days of continuous exposure (reference value: 0%); conditions: topical, 120 h
[8] = tested on: Cydia pomonella; experiment: Insecticidal activity against Cydia pomonella (codling moth) assessed as mortality at 1 mg/kg diet topically measured after 5 days of continuous exposure (reference value: 0%); conditions: topical, 120 h
[9] = tested on: Cydia pomonella; experiment: Insecticidal activity against Cydia pomonella (codling moth) assessed as mortality at 6 mg/kg diet topically measured after 5 days of continuous exposure (reference value: 0%); conditions: topical, 120 h
[10] = tested on: Cydia pomonella; experiment: Insecticidal activity against Cydia pomonella (codling moth) at 8 mg/kg assessed as growth regulation measured as number of head capsules of larvae after 5 days of continuous exposure (reference value: 0.2 +/- 0.2%)
[11] = tested on: Cydia pomonella; experiment: Insecticidal activity against Cydia pomonella (codling moth) assessed as mortality at 8 mg/kg diet topically measured after 10 days of continuous exposure (reference value: 3.3 +/- 3.3%); conditions: topical, 240 h
[12] = tested on: Cydia pomonella; experiment: Insecticidal activity against Cydia pomonella (codling moth) at 16 mg/kg assessed as growth regulation measured as number of head capsules of larvae after 5 days of continuous exposure (reference value: 0.2 +/- 0.2%)
[13] = tested on: Cydia pomonella; experiment: Insecticidal activity against Cydia pomonella (codling moth) at 8 mg/kg assessed as growth regulation measured as number of head capsules of larvae after 10 days of continuous exposure Rvb = (1.5 +/- 0.2%)
[14] = tested on: Cydia pomonella; experiment: Antifeedant activity against Cydia pomonella (codling moth) at 18 mg/kg diet topically measured after 5 days of continuous exposure (reference value: 6.7 +/- 6.7%)
[15] = tested on: Cydia pomonella; experiment: Insecticidal activity against Cydia pomonella (codling moth) at 18 mg/kg assessed as growth regulation measured as number of head capsules of larvae after 5 days of continuous exposure (reference value: 0.2 +/- 0.2%)
[16] = tested on: Cydia pomonella; experiment: Antifeedant activity against Cydia pomonella (codling moth) at 12 mg/kg diet topically measured after 5 days of continuous exposure (reference value: 6.7 +/- 6.7%)
[17] = tested on: Cydia pomonella; experiment: Antifeedant activity against Cydia pomonella (codling moth) at 8 mg/kg diet topically measured after 5 days of continuous exposure (reference value: 6.7 +/- 6.7%)
[18] = tested on: Cydia pomonella; experiment: Insecticidal activity against Cydia pomonella (codling moth) at 2 mg/kg assessed as growth regulation measured as number of head capsules of larvae after 5 days of continuous exposure (reference value: 0.2 +/- 0.2%)
[19] = tested on: Cydia pomonella; experiment: Insecticidal activity against Cydia pomonella (codling moth) assessed as mortality at 2 mg/kg diet topically measured after 5 days of continuous exposure (reference value: 0%); conditions: topical, 120 h
[20] = tested on: Cydia pomonella; experiment: Insecticidal activity against Cydia pomonella (codling moth) assessed as mortality at 18 mg/kg diet topically measured after 5 days of continuous exposure (reference value: 0%); conditions: topical, 120 h
[21] = tested on: Cydia pomonella; experiment: Antifeedant activity against Cydia pomonella (codling moth) at 16 mg/kg diet topically measured after 10 days of continuous exposure (reference value: 6.7 +/- 6.7%)
[22] = tested on: Cydia pomonella; experiment: Insecticidal activity against Cydia pomonella (codling moth) at 16 mg/kg assessed as growth regulation measured as number of head capsules of larvae after 10 days of continuous exposure Rvb = (1.5 +/- 0.2%)
[23] = tested on: Cydia pomonella; experiment: Insecticidal activity against Cydia pomonella (codling moth) at 4 mg/kg assessed as growth regulation measured as number of head capsules of larvae after 5 days of continuous exposure (reference value: 0.2 +/- 0.2%)
[24] = tested on: Cydia pomonella; experiment: Insecticidal activity against Cydia pomonella (codling moth) assessed as mortality at 12 mg/kg diet topically measured after 10 days of continuous exposure (reference value: 3.3 +/- 3.3%); conditions: topical, 240 h
[25] = tested on: Cydia pomonella; experiment: Insecticidal activity against Cydia pomonella (codling moth) assessed as mortality at 4 mg/kg diet topically measured after 10 days of continuous exposure (reference value: 3.3 +/- 3.3%); conditions: topical, 240 h
[26] = tested on: Cydia pomonella; experiment: Insecticidal activity against Cydia pomonella (codling moth) assessed as mortality diet topically measured after 5 days of continuous exposure; conditions: topical, 120 h
[27] = tested on: Cydia pomonella; experiment: Insecticidal activity against Cydia pomonella (codling moth) at 18 mg/kg assessed as growth regulation measured as number of head capsules of larvae after 10 days of continuous exposure Rvb = (1.5 +/- 0.2%)
[28] = tested on: Cydia pomonella; experiment: Insecticidal activity against Cydia pomonella (codling moth) assessed as mortality at 4 mg/kg diet topically measured after 5 days of continuous exposure (reference value: 0%); conditions: topical, 120 h
[29] = tested on: Cydia pomonella; experiment: Antifeedant activity against Cydia pomonella (codling moth) at 2 mg/kg diet topically measured after 10 days of continuous exposure (reference value: 6.7 +/- 6.7%)
[30] = tested on: Cydia pomonella; experiment: Antifeedant activity against Cydia pomonella (codling moth) at 18 mg/kg diet topically measured after 10 days of continuous exposure (reference value: 6.7 +/- 6.7%)
[31] = tested on: Cydia pomonella; experiment: Antifeedant activity against Cydia pomonella (codling moth) at 1 mg/kg diet topically measured after 10 days of continuous exposure (reference value: 6.7 +/- 6.7%)
[32] = tested on: Cydia pomonella; experiment: Insecticidal activity against Cydia pomonella (codling moth) assessed as mortality at 2 mg/kg diet topically measured after 10 days of continuous exposure (reference value: 3.3 +/- 3.3%); conditions: topical, 240 h
[33] = tested on: Cydia pomonella; experiment: Insecticidal activity against Cydia pomonella (codling moth) assessed as mortality at 12 mg/kg diet topically measured after 5 days of continuous exposure (reference value: 0%); conditions: topical, 120 h
[34] = tested on: Cydia pomonella; experiment: Antifeedant activity against Cydia pomonella (codling moth) at 16 mg/kg diet topically measured after 5 days of continuous exposure (reference value: 6.7 +/- 6.7%)
[35] = tested on: Cydia pomonella; experiment: Insecticidal activity against Cydia pomonella (codling moth) assessed as mortality at 20 mg/kg diet topically measured after 5 days of continuous exposure (reference value: 0%); conditions: topical, 120 h
[36] = tested on: Cydia pomonella; experiment: Antifeedant activity against Cydia pomonella (codling moth) at 6 mg/kg diet topically measured after 5 days of continuous exposure (reference value: 6.7 +/- 6.7%)

## CC1=C(O)C(=O)C=C2C1=CC=C1[C@@]2(C)CC[C@@]2(C)[C@@H]3C[C@](C)(O)C(=O)C[C@]3(C)CC[C@]12C [20ALPHA-HYDROXYTINGENONE]
[1]
  Activity: 53.3%
[2]
  Activity: 0
[3]
  Activity: 0.6
[4]
  Activity: 36.7%
[5]
  Activity: 0
[6]
  Activity: 1.2
[7]
  mortality at 8 mg/kg: 3.3%
[8]
  mortality at 1 mg/kg: 3.3%
[9]
  mortality at 6 mg/kg: 10%
[10]
  Activity: 0
[11]
  mortality at 8 mg/kg: 43.3%
[12]
  Activity: 0
[13]
  Activity: 0.2
[14]
  Activity: 100%
[15]
  Activity: 0
[16]
  Activity: 96.7%
[17]
  Activity: 100%
[18]
  Activity: 0.1
[19]
  mortality at 2 mg/kg: 0%
[20]
  mortality at 18 mg/kg: 86.7%
[21]
  Activity: 100%
[22]
  Activity: 0
[23]
  Activity: 0
[24]
  mortality at 12 mg/kg: 60%
[25]
  mortality at 4 mg/kg: 16.7%
[26]
  LC50: 13 mg/mL (≈ 29.8 mM)
[27]
  Activity: 0
[28]
  mortality at 4 mg/kg: 6.7%
[29]
  Activity: 3.3%
[30]
  Activity: 100%
[31]
  Activity: 6.7%
[32]
  mortality at 2 mg/kg: 0%
[33]
  mortality at 12 mg/kg: 53.3%
[34]
  Activity: 100%
[35]
  mortality at 20 mg/kg: 100%
[36]
  Activity: 83.3%
